# Experimental data published in patent US20200016152A1, “TREATMENT OF DISEASES” (Ampio Pharmaceuticals, Inc., priority 2010, published 2020).
# Assays:
# [1] = test system: human retinal endothelial cells; assay: Actin stress fiber formation (rhodamine-phalloidin F-actin staining); type: cell-based
# Protocol: Passage 12 human retinal endothelial cells (ACBRI 181, Cell Systems Corporation (exclusive distributor for Applied Cell Biology Research Institute), Kirkland, Wash.) were seeded into 16-chamber glass slides coated with 5 μg/cm^2 fibronectin at 5000 cells per well in a total volume of 200 μl of EGM-2 medium (Lonza). The slides were cultured in a 37° C. incubator with 5% CO2 for 48 hours with daily medium changes. Then, the test compounds (DA-DKP, S1P and TNFα), diluted in Hanks Balanced Salt Solution (HBSS; Lonza), were added to give the following final concentrations: DA-DKP (100 μM) (Sigma), TNFα (1 ng/ml) (Sigma), and S1P (1 μM) (Sigma). The slides were incubated with the test compounds for 15 minutes or 3 hours in a 37° C. incubator with 5% CO2. After this incubation, the medium was aspirated, and the cells were fixed using 3.6% formaldehyde in phosphate buffered saline (PBS) for ten minutes at room temperature. All wells were then washed two times with 100 μl PBS. The cells were permeabilized using a 0.1% Triton X-100 in PBS for 5 minutes. All wells were then washed two times with 100 μl PBS, and 50 μl of a 1:40 dilution of rhodamine-phalloidin (Invitrogen) in PBS was added to the cells to stain for F-actin and left on the cells for 20 minutes at room temperature. All wells were then washed two times with 100 μl PBS. Then 100 μl PBS was added to each well and the cells were observed and photographed using an inverted microscope using a rhodamine (ex530/em590) filter.
# RhoA = assay: Rho activation assay (GLISA) in retinal endothelial cells; type: cell-based, human; conditions: for active Rho A levels induced: thrombin alone
# Protocol: This experiment was performed using a commercially-available Rho activation assay (GLISA) purchased from Cytoskeleton, Denver, Colo., following the manufacturer's protocol. Briefly, passage 8 or 12 human retinal endothelial cells (ACBRI 181, Applied Cell Biology Research Institute, Kirkland, Wash.) were cultured on fibronectin-coated (1 μg/cm^2) 6-well tissue culture plates using EGM-2 culture medium (Lonza) for 24 hours in a 37° C. incubator with 5% CO2 (30,000 cells/well in total volume of 3 ml). Then, the medium was aspirated and replaced with Ultraculture medium supplemented with 0.1% fetal bovine serum, L-glutamine, sodium pyruvate, penicillin/streptomycin and ITSS (insulin, transferrin sodium selenium) (all from Lonza) to serum starve the cells and reduce the background level of RhoA. The cells were cultured for 24 hours in a 37° C. incubator with 5% CO2. Test compounds diluted in HBSS were placed in the incubator to equilibrate before addition to the cells. Then, 150 μl of each test compound was added to the appropriate culture wells, and the plates were incubated in the incubator for an additional 15 minutes. Then, thrombin was added to appropriate wells. After 1 minute, the cells were washed one time with 1.5 ml phosphate buffered saline and were then lysed with 100 μl GLISA lysis buffer supplemented with protease inhibitors. The extracts were scraped, transferred to microcentrifuge tubes and transferred to ice to preserve the active form of RhoA. All extracts were then cleared of debris by spinning at 10,000 rpms for 2 minutes at 4° C. The supernatants were transferred to new tubes and placed back on ice. Aliquots of each extract were removed for the GLISA assay and for protein determinations. All protein concentrations were within 10%, and the extracts were used at the achieved concentrations (equates to 15 total protein per well). The GLISA assay was performed using the reagents supplied in the kit.
# [2] = test system: passage 6 human retinal endothelial cells; assay: ECIS transendothelial electrical resistance (TER), passage 6 retinal endothelial cells; type: cell-based; conditions: for ECIS as compared to untreated cells: monitored 50 hours
# Protocol: Assays were performed to determine the effect of MR-DKP (a diketopiperazine wherein R^1 in formula I is the side chain of methionine and R^2 is side chain of arginine) on transendothelial electrical resistance (TER) of passage 6 human retinal endothelial cells (Applied Cell Systems Corporation (exclusive distributor for Applied Cell Biology Research Institute), Kirkland, Wash.). Electrical resistance was measured using the electric cell-substrate impedance sensing (ECIS) system (ECISZθ, obtained from Applied Biophysics) with 8-well multiple electrode plates (8W10E). Each well of the plates was stabilized by adding 250 μl of 10 mM cysteine (Sigma) in sterile water to each well and incubating for 30 minutes at room temperature. The wells were then washed two times with 150 μl of sterile water to remove the cysteine. All wells were then coated with 10 μg/cm^2 collagen by diluting the stock solution (0.5 mg/ml Type IV collagenin 0.25% acetic acid (Sigma) in sterile water and adding 150 μl of the resulting solution to each well. The collagen solution was incubated on the plates at 37° C. for 120 minutes and then removed. The wells were washed two times with 400 μl sterile water to remove the collagen. Next, 400 μl of EGM-2 culture medium (Lonza) was added to each well. The plates were connected to the ECISZθ system and were electrically stabilized. The EGM-2 medium was aspirated and replaced with 400 μl of EGM-2 culture medium containing 100,000 cells per well. The plates were reconnected to the ECISZθ system and incubated for 24 hours in a 37° C. incubator with 5% CO2. The EGM-2 medium was aspirated and replaced with 400 μl of EGM-2 culture medium. The plates were reconnected to the ECISZθ system and incubated for 2 hours in a 37° C. incubator with 5% CO2. Solutions of the test compound in HBSS were prepared and placed in the incubator to equilibrate. The test compound was then added to appropriate wells at the following final concentrations: MR-DKP (50 μM and 100 ECIS (resistance) was monitored for 50 hours.
# Example 5 was repeated, except that the diketopiperazine used was YE-DKP (a diketopiperazine wherein R^1 in formula I is the side chain of glutamic acid and R^2 is the side chain of tyrosine). […] The increase was about 20% at its maximum.
# [3] = passage 12 cells, 1.0 μM + 0.1 U/ml thrombin
# [4] = passage 12 cells, 1.0 μM, no thrombin
compound,measurement,setting,value
"CCCCCCCCCCCCC/C=C/[C@@H](O)[C@@H](N)COP(=O)(O)O [S1P, sphingosine-1 phosphate, reference compound]",F-actin staining pattern,"[1]; S1P 1 μM alone, 15 minutes and 3 hours",actin cortical rings
COc1cc2ncnc(Nc3ccc(Oc4ccccc4)cc3)c2cc1OC [Src-1 Inhibitor],Mean OD (active RhoA),RhoA; [3],0.534
same,Percent Inhibition vs. Thrombin,RhoA; [3],85.85%
same,Mean OD (active RhoA),RhoA; [4],0.349
same,Percent Inhibition vs. Untreated Control,RhoA; [4],23.21%
O=C(O)CC[C@@H]1NC(=O)[C@H](Cc2ccc(O)cc2)NC1=O [YE-DKP],ECIS as compared to untreated cells,[2]; 50 μM,did not show a significant increase in ECIS
same,ECIS increase at its maximum,[2]; 100 μM,about 20%
same,persistence of ECIS increase,[2]; 100 μM,persisted for the remainder of the experiment
same,start of ECIS increase,[2]; 100 μM,about 6 hours
same,time at which ECIS increase became significant,[2]; 100 μM,about 12 hours
same,time at which resistance increased again,[2]; 100 μM,about 29 hours
same,time at which resistance returned to the levels of the control,[2]; 100 μM,around 28 hours
same,time of reaching significance again,[2]; 100 μM,about 33 hours
same,ECIS as compared to untreated cells,[2]; 100 μM,increase in ECIS
TNFα [reference compound],F-actin staining pattern (stress fibers),"[1]; TNFα 1 ng/ml alone, 15 minutes to 3 hours",stress fibers were seen at all times
Thrombin,Mean OD (active RhoA),"RhoA; passage 8 cells, 0.1 U/ml thrombin alone",0.561
same,active Rho A levels induced,RhoA; passage 8 cells,very high
same,Mean OD (active RhoA),"RhoA; passage 12 cells, 0.1 U/ml thrombin alone",1.013
same,active Rho A levels induced,RhoA; passage 12 cells,very high
